Results on five compounds are retold here after doi:10.1101/2025.02.20.639278v1, “Discovery of inhibitors for bacterial Arr enzymes ADP-ribosylating and inactivating rifamycin antibiotics” (biorxiv, 2025).

The target of assay [1] is T1, PaArr (Pseudomonas aeruginosa, UniProt O87490).
T1 construct: gene arr-2; class 1 integron gene; codon-optimized; His6-MBP tag cut off with TEV; E. coli BL21(DE3); monomer
In words: fluorescent NAD+ conversion assay. It counts as biochemical.

The next assay addresses T2, MsArr (Mycolicibacterium smegmatis, UniProt A0QRS5, V47I/Y72F).
T2 construct: gene MSMEG_1221; V47I Y72F variant gene; His6-MBP tag cut off with TEV; E. coli BL21(DE3)
Put plainly: fluorescent NAD+ conversion assay. It counts as biochemical.

Assay [2] concerns the target T3, MaArr (Mycobacteroides abscessus, UniProt B1MH05).
T3 construct: gene MAB_0591; chromosomal gene; codon-optimized; His6-MBP tag cut off with TEV; E. coli BL21(DE3)
In words: fluorescent NAD+ conversion assay. The format is biochemical.

The target in assay [3] is T1, PaArr. In words: fluorescent NAD+ conversion assay. It counts as biochemical. This is another data set of the same source.
A further assay addresses T4, TNKS2 (Homo sapiens, UniProt Q9H2K2).
T4 sequence (Q9H2K2 1-1166): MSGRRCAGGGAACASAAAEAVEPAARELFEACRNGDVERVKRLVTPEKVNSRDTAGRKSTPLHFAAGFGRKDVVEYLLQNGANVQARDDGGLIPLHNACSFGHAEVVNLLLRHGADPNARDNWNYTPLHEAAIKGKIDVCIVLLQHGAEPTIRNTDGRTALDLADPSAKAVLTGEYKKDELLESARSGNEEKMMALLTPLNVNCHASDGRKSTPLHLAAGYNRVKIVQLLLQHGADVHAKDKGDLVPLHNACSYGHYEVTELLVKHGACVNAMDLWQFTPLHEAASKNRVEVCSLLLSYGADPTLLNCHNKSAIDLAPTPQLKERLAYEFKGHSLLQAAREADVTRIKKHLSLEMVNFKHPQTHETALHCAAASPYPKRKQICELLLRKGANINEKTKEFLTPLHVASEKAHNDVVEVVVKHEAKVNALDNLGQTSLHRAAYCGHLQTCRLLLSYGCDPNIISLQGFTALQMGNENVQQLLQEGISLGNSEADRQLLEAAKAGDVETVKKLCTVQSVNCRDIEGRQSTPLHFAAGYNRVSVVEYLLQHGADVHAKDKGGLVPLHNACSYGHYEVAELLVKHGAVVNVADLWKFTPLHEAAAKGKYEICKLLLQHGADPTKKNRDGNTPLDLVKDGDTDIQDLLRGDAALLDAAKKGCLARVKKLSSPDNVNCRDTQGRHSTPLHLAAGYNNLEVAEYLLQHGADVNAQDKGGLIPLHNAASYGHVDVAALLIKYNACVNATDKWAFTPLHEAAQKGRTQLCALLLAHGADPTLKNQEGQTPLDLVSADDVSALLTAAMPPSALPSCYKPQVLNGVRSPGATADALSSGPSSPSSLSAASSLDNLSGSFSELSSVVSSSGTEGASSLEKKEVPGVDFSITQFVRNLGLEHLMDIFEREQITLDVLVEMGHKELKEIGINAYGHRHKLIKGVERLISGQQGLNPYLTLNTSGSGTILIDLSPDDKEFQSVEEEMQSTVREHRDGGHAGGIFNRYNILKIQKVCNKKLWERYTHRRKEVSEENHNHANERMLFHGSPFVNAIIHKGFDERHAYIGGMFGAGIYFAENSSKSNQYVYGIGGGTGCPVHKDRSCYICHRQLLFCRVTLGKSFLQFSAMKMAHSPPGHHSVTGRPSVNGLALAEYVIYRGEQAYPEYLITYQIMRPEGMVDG
In words: human ADP-ribosyltransferase activity panel. It counts as biochemical.

Assay [4] addresses T3, MaArr. Put plainly: fluorescent NAD+ conversion assay. It counts as biochemical. This is another data set of the same source.
In another assay the target is PARP2 (Homo sapiens, UniProt Q9UGN5). In words: human ADP-ribosyltransferase activity panel. It counts as biochemical.
The test system of the next assay is T5, SmArr.
T5 construct: gene arr; class 1 integron gene; codon-optimized; His6-MBP tag cut off with TEV; E. coli BL21(DE3)
Put plainly: fluorescent NAD+ conversion assay. Particulars: 1 µM NAD+, 2 µM rifampicin, 50 mM PIPES pH 7.5, 0.01% Triton X-100, room temperature. It counts as biochemical, Stenotrophomonas maltophilia.

The target of assay [5] is T1, PaArr. In words: X-ray crystal structure, […] Å. Particulars: crystal with 1 mM rifampicin; an additional rifampicin molecule at crystal contacts, likely artifact. The format is binding.

Broadly, the inhibition is the drop in the measured response relative to a control, in per cent. Lower therefore signals a response near the control. The term IC50 denotes the midpoint of a concentration-inhibition curve. High values mean a need for much substance, low ones inhibition by little substance. Turning to `Nc1nc2ccc(Cl)cc2c(O)c1-c1ccccc1` [compound 1], the inhibition at 100 µM on PaArr [1] and against MaArr [2] was less than 50% in each case. The IC50 against MsArr worked out at 1.3 µM.

Turning to `NS(=O)(=O)c1ccc(-c2nc3ccccc3c(=O)[nH]2)cc1` [compound 2], the 50% inhibitory concentration (IC50) against PaArr [3] was 10 to 100 µM; on TNKS2, “showed strong inhibition of TNKS2 and PARP2 as expected (Figure 3E)”; at MaArr [4], 10 to 100 µM; on MsArr it was 2 µM; against PARP2, “showed strong inhibition of TNKS2 and PARP2 as expected (Figure 3E)”; in the assay with SmArr, 10 to 100 µM.

In the case of `O=c1c(O)c(-c2cc(O)c(O)c(O)c2)oc2cc(O)cc(O)c12` [compound 7], the values for the 50% inhibitory concentration (IC50) on PaArr [3] and in the assay on SmArr were 0.47 µM and 1.7 µM, respectively.

`Oc1ccc(O)c2c1sc1nncn12` [compound 13, 13] came in with an IC50 in the assay with SmArr of 1.2 µM.

With `CO[C@H]1/C=C/O[C@@]2(C)Oc3c(C)c(O)c4c(O)c(c(/C=N/N5CCN(C)CC5)c(O)c4c3C2=O)NC(=O)/C(C)=C\C=C\[C@H](C)[C@H](O)[C@@H](C)[C@@H](O)[C@@H](C)[C@H](OC(C)=O)[C@@H]1C` [rifampicin], at PaArr [5], the “X-ray crystal structure, 1.4 Å” value is “In the crystal structure of PaArr, an additional rifampicin molecule stacks against these two areas”.
